Measured values from PubChem BioAssay AID1745844 (Carcinogenic Potency Database (CPDB), 2022).
Activity calls are given as the source filed them. No rule for the calls is given here.

System: rodent lifetime carcinogenesis bioassay, tumor incidence TD50
Experiment: chronic cancer bioassays in animals – CPDB, compiled studies (AID 1745844)

CCCC(Cl)CCCC(Cl)CCC(Cl)CCC(Cl)CCC(Cl)CCCC(Cl)CCC (stereo not given)
TD50 (mouse, strain B6C3F1, females, by gavage, site: Harderian gland, lesion: adenoma, NOS, dosed 103 weeks, study length 104 weeks): 347 mg/kg/day
TD50 (mouse, strain B6C3F1, females, by gavage, site: liver + thyroid gland, lesion: hepatocellular adenoma + hepatocellular carcinoma + follicular-cell adenoma + follicular-cell carcinoma, dosed 103 weeks, study length 104 weeks): 86.8 mg/kg/day
TD50 (mouse, strain B6C3F1, females, by gavage, site: lung, lesion: alveolar/bronchiolar adenoma + alveolar/bronchiolar carcinoma, dosed 103 weeks, study length 104 weeks): 1.22e+06 mg/kg/day
TD50 (mouse, strain B6C3F1, females, by gavage, site: multiple organs, lesion: malignant lymphoma, lymphocytic type, dosed 103 weeks, study length 104 weeks): 599 mg/kg/day
TD50 (mouse, strain B6C3F1, females, by gavage, site: thyroid gland, lesion: follicular-cell adenoma + follicular-cell carcinoma, dosed 103 weeks, study length 104 weeks): 307 mg/kg/day
TD50 (mouse, strain B6C3F1, females, by gavage, site: thyroid gland, lesion: follicular-cell adenoma, dosed 103 weeks, study length 104 weeks): 372 mg/kg/day
TD50 (mouse, strain B6C3F1, males, by gavage, site: liver + mesenteric lymph node + multiple organs + small intestine + spleen, lesion: malignant lymphoma, NOS + malignant lymphoma, mixed type + malignant lymphoma, lymphocytic type + malignant lymphoma, histiocy, dosed 103 weeks, study length 104 weeks): 6540 mg/kg/day
TD50 (mouse, strain B6C3F1, males, by gavage, site: liver, lesion: hepatocellular adenoma + hepatocellular carcinoma, dosed 103 weeks, study length 104 weeks): 143 mg/kg/day
TD50 (mouse, strain B6C3F1, males, by gavage, site: liver, lesion: hepatocellular adenoma, dosed 103 weeks, study length 104 weeks): 157 mg/kg/day
TD50 (mouse, strain B6C3F1, males, by gavage, site: lung, lesion: alveolar/bronchiolar carcinoma, dosed 103 weeks, study length 104 weeks): 606 mg/kg/day
TD50 (mouse, strain B6C3F1, males, by gavage, site: mesenteric lymph node + multiple organs + small intestine + spleen, lesion: malignant lymphoma, mixed type, dosed 103 weeks, study length 104 weeks): 12100 mg/kg/day
TD50 (mouse, strain B6C3F1, males, by gavage, site: mesenteric lymph node + multiple organs, lesion: malignant lymphoma, lymphocytic type, dosed 103 weeks, study length 104 weeks): 22900 mg/kg/day
TD50 (mouse, strain B6C3F1, males, by gavage, site: multiple organs, lesion: malignant lymphoma, histiocytic type, dosed 103 weeks, study length 104 weeks): 43200 mg/kg/day
TD50 (mouse, strain B6C3F1, males, by gavage, site: thyroid gland, lesion: follicular-cell carcinoma, dosed 103 weeks, study length 104 weeks): 44000 mg/kg/day
TD50 (rat, strain Fischer 344, females, by gavage, site: adrenal medulla, lesion: pheochromocytoma + pheochromocytoma, malignant, dosed 103 weeks, study length 105 weeks): 2350 mg/kg/day
TD50 (rat, strain Fischer 344, females, by gavage, site: any site (literature study), lesion: several types, types named in the paper, dosed 104 weeks, study length 105 weeks): 1100 mg/kg/day
TD50 (rat, strain Fischer 344, females, by gavage, site: liver + thyroid gland, lesion: hepatocellular carcinoma + neoplastic nodule + follicular-cell adenoma + follicular-cell carcinoma, dosed 104 weeks, study length 105 weeks): 583 mg/kg/day
TD50 (rat, strain Fischer 344, females, by gavage, site: liver, lesion: hepatocellular adenoma + hepatocellular carcinoma + neoplastic nodule, dosed 103 weeks, study length 105 weeks): 24800 mg/kg/day
TD50 (rat, strain Fischer 344, females, by gavage, site: liver, lesion: hepatocellular adenoma + hepatocellular carcinoma + neoplastic nodule, dosed 104 weeks, study length 105 weeks): 1140 mg/kg/day
TD50 (rat, strain Fischer 344, females, by gavage, site: liver, lesion: hepatocellular carcinoma + neoplastic nodule, dosed 104 weeks, study length 105 weeks): 1140 mg/kg/day
TD50 (rat, strain Fischer 344, females, by gavage, site: liver, lesion: neoplastic nodule, dosed 104 weeks, study length 105 weeks): 1200 mg/kg/day
TD50 (rat, strain Fischer 344, females, by gavage, site: multiple organs, lesion: mononuclear-cell leukemia, dosed 104 weeks, study length 105 weeks): 345 mg/kg/day
TD50 (rat, strain Fischer 344, females, by gavage, site: pancreas, lesion: acinar-cell adenoma, dosed 104 weeks, study length 105 weeks): 839 mg/kg/day
TD50 (rat, strain Fischer 344, females, by gavage, site: thyroid gland, lesion: follicular-cell adenoma + follicular-cell carcinoma, dosed 104 weeks, study length 105 weeks): 1160 mg/kg/day
TD50 (rat, strain Fischer 344, females, by gavage, site: thyroid gland, lesion: follicular-cell adenoma, dosed 104 weeks, study length 105 weeks): 736 mg/kg/day
TD50 (rat, strain Fischer 344, females, by gavage, site: thyroid gland, lesion: follicular-cell carcinoma, dosed 104 weeks, study length 105 weeks): 4060 mg/kg/day
TD50 (rat, strain Fischer 344, females, by gavage, site: uterus, lesion: endometrial stromal polyp + endometrial stromal sarcoma, dosed 104 weeks, study length 105 weeks): 394 mg/kg/day
TD50 (rat, strain Fischer 344, males, by gavage, site: adrenal gland, lesion: pheochromocytoma + pheochromocytoma, malignant, dosed 104 weeks, study length 105 weeks): 192 mg/kg/day
TD50 (rat, strain Fischer 344, males, by gavage, site: any site (literature study), lesion: several types, types named in the paper, dosed 104 weeks, study length 105 weeks): 75.7 mg/kg/day
TD50 (rat, strain Fischer 344, males, by gavage, site: kidney + liver, lesion: tubular-cell adenoma + tubular-cell adenocarcinoma + hepatocellular carcinoma + neoplastic nodule, dosed 104 weeks, study length 105 weeks): 110 mg/kg/day
TD50 (rat, strain Fischer 344, males, by gavage, site: kidney, lesion: tubular-cell adenoma + tubular-cell adenocarcinoma, dosed 104 weeks, study length 105 weeks): 196 mg/kg/day
TD50 (rat, strain Fischer 344, males, by gavage, site: kidney, lesion: tubular-cell adenoma, dosed 104 weeks, study length 105 weeks): 417 mg/kg/day
TD50 (rat, strain Fischer 344, males, by gavage, site: liver, lesion: hepatocellular adenoma + hepatocellular carcinoma + neoplastic nodule, dosed 103 weeks, study length 105 weeks): 14500 mg/kg/day
TD50 (rat, strain Fischer 344, males, by gavage, site: liver, lesion: hepatocellular adenoma + hepatocellular carcinoma + neoplastic nodule, dosed 104 weeks, study length 105 weeks): 123 mg/kg/day
TD50 (rat, strain Fischer 344, males, by gavage, site: liver, lesion: hepatocellular carcinoma + neoplastic nodule, dosed 104 weeks, study length 105 weeks): 123 mg/kg/day
TD50 (rat, strain Fischer 344, males, by gavage, site: liver, lesion: hepatocellular carcinoma, dosed 104 weeks, study length 105 weeks): 551 mg/kg/day
TD50 (rat, strain Fischer 344, males, by gavage, site: liver, lesion: neoplastic nodule, dosed 103 weeks, study length 105 weeks): 14500 mg/kg/day (inactive)
TD50 (rat, strain Fischer 344, males, by gavage, site: liver, lesion: neoplastic nodule, dosed 104 weeks, study length 105 weeks): 173 mg/kg/day
TD50 (rat, strain Fischer 344, males, by gavage, site: mammary gland, lesion: fibroadenoma, dosed 104 weeks, study length 105 weeks): 566 mg/kg/day
TD50 (rat, strain Fischer 344, males, by gavage, site: multiple organs + spleen, lesion: mononuclear-cell leukemia, dosed 104 weeks, study length 105 weeks): 406 mg/kg/day
TD50 (rat, strain Fischer 344, males, by gavage, site: pancreas, lesion: acinar-cell adenoma, dosed 104 weeks, study length 105 weeks): 150 mg/kg/day
TD50 (rat, strain Fischer 344, males, by gavage, site: pancreas, lesion: acinar-cell carcinoma + acinar-cell adenoma, dosed 104 weeks, study length 105 weeks): 144 mg/kg/day
TD50 (rat, strain Fischer 344, males, by gavage, site: pancreatic islets, lesion: islet-cell adenoma, dosed 103 weeks, study length 105 weeks): 17600 mg/kg/day
TD50 (rat, strain Fischer 344, males, by gavage, site: preputial gland, lesion: adenoma, NOS + carcinoma, NOS, dosed 104 weeks, study length 105 weeks): 522 mg/kg/day
TD50 (rat, strain Fischer 344, males, by gavage, site: preputial gland, lesion: adenoma, NOS, dosed 104 weeks, study length 105 weeks): 568 mg/kg/day
TD50 (rat, strain Fischer 344, males, by gavage, site: skin + subcutaneous tissue, lesion: fibroma, dosed 104 weeks, study length 105 weeks): 332 mg/kg/day
TD50 (rat, strain Fischer 344, males, by gavage, site: testis, lesion: interstitial-cell tumor, dosed 104 weeks, study length 105 weeks): 75.2 mg/kg/day

Nc1ccc(-c2ccc(N)c(Cl)c2)cc1Cl
carcinogen call (dog, strain Beagle, females, given by capsule, site: liver, lesion: several types, types named in the paper, dosed 369 weeks, study length 370 weeks): positive
carcinogen call (dog, strain Beagle, females, given by capsule, site: urinary bladder, lesion: several types, types named in the paper, dosed 369 weeks, study length 370 weeks): positive
carcinogen call (mouse, strain ICR/Jcl, males, in feed, site: liver, lesion: hepatoma, dosed 52 weeks, study length 52 weeks): positive
carcinogen call (rat, strain Charles River CD (Sprague-Dawley), females, in feed, site: liver, lesion: one or several types, types not named, dosed 69 weeks, study length 69 weeks): negative (inactive)
TD50 (rat, strain Charles River CD (Sprague-Dawley), females, in feed, site: mammary gland, lesion: adenocarcinoma, dosed 69 weeks, study length 69 weeks): 18.3 mg/kg/day
TD50 (rat, strain Charles River CD (Sprague-Dawley), males, in feed, site: Zymbal's gland, lesion: squamous-cell carcinoma, dosed 69 weeks, study length 69 weeks): 60.1 mg/kg/day
TD50 (rat, strain Charles River CD (Sprague-Dawley), males, in feed, site: all sites, lesion: granulocytic leukemia, dosed 69 weeks, study length 69 weeks): 66.2 mg/kg/day
carcinogen call (rat, strain Charles River CD (Sprague-Dawley), males, in feed, site: liver, lesion: one or several types, types not named, dosed 69 weeks, study length 69 weeks): negative (inactive)
TD50 (rat, strain Charles River CD (Sprague-Dawley), males, in feed, site: mammary gland, lesion: adenocarcinoma, dosed 69 weeks, study length 69 weeks): 69.6 mg/kg/day

O=C(OOC(=O)c1ccccc1)c1ccccc1
carcinogen call (mouse, strain albino, both sexes, in feed, site: liver, lesion: hepatoma, dosed 80 weeks, study length 80 weeks): negative (inactive)
carcinogen call (mouse, strain albino, both sexes, in feed, site: lung, lesion: adenoma, dosed 80 weeks, study length 80 weeks): negative (inactive)
TD50 (rat, strain albino, both sexes, in feed, site: any site (literature study), lesion: benign tumor, dosed 120 weeks, study length 120 weeks): 6480 mg/kg/day (inactive)
TD50 (rat, strain albino, both sexes, in feed, site: any site (literature study), lesion: malignant tumor, dosed 120 weeks, study length 120 weeks): 15600 mg/kg/day (inactive)
carcinogen call (rat, strain albino, both sexes, in feed, site: liver, lesion: malignant hepatoma, dosed 120 weeks, study length 120 weeks): negative (inactive)

C/C=C/C=C/C(=O)O
TD50 (mouse, strain ASH-CS1, females, in feed, site: liver, lesion: hyperplastic nodule, dosed 80 weeks, study length 80 weeks): 362000 mg/kg/day (inactive)
carcinogen call (mouse, strain ASH-CS1, females, in feed, site: lung, lesion: adenoma, dosed 80 weeks, study length 80 weeks): negative (inactive)
carcinogen call (mouse, strain ASH-CS1, males, in feed, site: liver, lesion: hyperplastic nodule, dosed 80 weeks, study length 80 weeks): negative (inactive)
carcinogen call (mouse, strain ASH-CS1, males, in feed, site: lung, lesion: adenoma, dosed 80 weeks, study length 80 weeks): negative (inactive)
carcinogen call (rat, strain Wistar, females, in feed, site: any site (literature study), lesion: malignant tumor, dosed 104 weeks, study length 104 weeks): negative (inactive)
carcinogen call (rat, strain Wistar, females, in feed, site: any site (literature study), lesion: several types, types named in the paper, dosed 104 weeks, study length 104 weeks): negative (inactive)
TD50 (rat, strain Wistar, females, in feed, site: liver, lesion: hemangioma, dosed 104 weeks, study length 104 weeks): 34000 mg/kg/day (inactive)
TD50 (rat, strain Wistar, males, in feed, site: any site (literature study), lesion: malignant tumor, dosed 104 weeks, study length 104 weeks): 51400 mg/kg/day (inactive)
TD50 (rat, strain Wistar, males, in feed, site: any site (literature study), lesion: several types, types named in the paper, dosed 104 weeks, study length 104 weeks): 33900 mg/kg/day (inactive)
carcinogen call (rat, strain Wistar, males, in feed, site: liver, lesion: hemangioma, dosed 104 weeks, study length 104 weeks): negative (inactive)

NC(=O)CCCCn1ccc(NC(N)=NCC(F)(F)F)n1
TD50 (mouse, strain B6C3F1, females, in feed, site: gastric mucosa, lesion: carcinoid tumor, malignant, dosed 91 weeks, study length 91 weeks): 956 mg/kg/day
TD50 (mouse, strain B6C3F1, males, in feed, site: gastric mucosa, lesion: carcinoid tumor, malignant, dosed 91 weeks, study length 91 weeks): 401 mg/kg/day
TD50 (rat, strain Sprague-Dawley, females, in feed, site: gastric mucosa, lesion: carcinoid tumor, malignant, dosed 104 weeks, study length 104 weeks): 1350 mg/kg/day
TD50 (rat, strain Sprague-Dawley, males, in feed, site: gastric mucosa, lesion: carcinoid tumor, malignant, dosed 104 weeks, study length 104 weeks): 1030 mg/kg/day
